Measurements: patent publication US5925571A, “Method of testing immune competency” (Oxi-Gene, Inc., priority 1997, dated 1999)

What was measured:
[1] = test system: ADPRT (ADP-ribosylation) in HML; assay: HML + neutrophil co-culture exposed to PMA: HML ADP-ribosylation versus HOCl production; assay type: cell-based, human; conditions: 1×10^6 HML with 0 to 4×10^6 neutrophils, PMA 25 ng/ml, 30 min at 37° C.; FIG. 1
Description: HOCl measurement.--Mixed cultures of HML+ neutrophils were assayed for the production of HOCl in the extracellular conditioned medium by removal of the cells by centrifugation following the incubation period, and immediately trapping the produced HOCl with taurine (20 mM). Taurine chloramine was then quantified spectrophotometrically by using the conversion of I^- to I2 (E=2.29×10^4 M^-1 cm^-1). Details of this procedure have been described by Weiss et al (J. Clin. Invest. 70:598-607, 1982).
(§1) ADPRT assay.--The procedure was adapted from the permeabilized cell technique of Berger (Methods Cell Biol. 20:325-340, 1988) with modifications as previously described (Pero et al, Carcinogenesis 10:1657-64, 1989). Duplicate samples of 1×10^6 HML in the presence of 0 to 4×10^6 neutrophils were cultured in 1 ml of KRPG buffer for 30 min at 37° C. in the presence of PMA (phorbol-12-myristate-13-acetate, 25 ng/ml). After this co-incubation, the HML+ neutrophil mixtures were harvested by centrifugation, permeabilized, and ADPRT activity determined by radiometric procedure as described in detail elsewhere (Pero et al, Carcinogenesis 10:1657-64, 1989). […]
This Example establishes that human phagocytes (i.e. neutrophils) produce physiologic relevant concentrations of endogenous ADPRT inhibitors. […] The respiratory burst induced by PMA exposure of neutrophils was monitored by HOCl production. […]

[2] = test system: ADPRT (adenosine diphosphate ribosyl transferase) in HML; assay: PMA induced ADPRT activity in HML treated with HOCl or chloramine T (permeabilized cell radiometric assay); assay type: cell-based, human; conditions: doses of 80 μM; 30 min at 37° C., then PMA 25 ng/ml for 30 min; versus zero-dose control; FIG. 2
Description: as §1
The effect of various dosage levels of chloramine T and HOCl on PMA induced ADPRT activity in HML was investigated utilizing the procedures described above for such tests, measuring the PMA induced ADPRT activity for HML subjected to the various dosages, and comparing the values obtained with measured control values of PMA induced ADPRT activity in HML from the same source but with zero dosages of chloramine T and HOCl.

SMILES | produced concentration sufficient to cause inhibition of HML ADP-ribosylation [1] | inhibition of HML ADPRT activity [2] [%]
OCl [HOCl] | about 80 μM | > 80
Cc1ccc(S(=O)(=O)[N-]Cl)cc1.[Na+] [N-chloramine, chloramine T] | about 80 μM | > 80
